pIC50, pKi: −log10 of the molar value. Converted amounts (≈) assume the structure as drawn.
Legend:
[1] = biological target: T1, Enoyl-[acyl-carrier-protein] reductase [NADH] (Francisella tularensis subsp. tularensis (strain SCHU S4 / Schu 4), UniProt Q5NGQ3)
T1 sequence (Q5NGQ3 whole entry): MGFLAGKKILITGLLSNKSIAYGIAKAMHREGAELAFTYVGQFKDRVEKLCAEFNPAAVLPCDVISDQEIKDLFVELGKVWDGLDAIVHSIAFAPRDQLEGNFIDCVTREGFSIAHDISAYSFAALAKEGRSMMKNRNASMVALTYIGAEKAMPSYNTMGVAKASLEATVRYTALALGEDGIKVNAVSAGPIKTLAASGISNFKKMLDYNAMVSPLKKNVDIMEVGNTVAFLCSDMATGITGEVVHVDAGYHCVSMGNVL

Staphylococcus aureus = experiment: Antibacterial activity against Staphylococcus aureus ATCC 29213 expressing FabI assessed as growth inhibition after 18 to 24 hrs by microdilution method; format: functional
Pseudomonas aeruginosa = experiment: Antibacterial activity against Pseudomonas aeruginosa ATCC 27853 expressing FabI, FabV, FabK assessed as growth inhibition after 18 to 24 hrs by microdilution method; format: functional
Escherichia coli = experiment: Antibacterial activity against Escherichia coli ATCC 25922 expressing FabI assessed as growth inhibition after 18 to 24 hrs by microdilution method; format: functional
Bacillus anthracis = experiment: Antibacterial activity against Bacillus anthracis Ames expressing FabI assessed as growth inhibition after 18 to 24 hrs by microdilution method; format: functional
[2] = tested on: Francisella tularensis subsp. tularensis SCHU S4; experiment: Antibacterial activity against Francisella tularensis SCHU S4 expressing FabI assessed as growth inhibition after 42 to 48 hrs by microdilution method; format: functional
[3] = Cytotoxicity against mouse Neuro2a cells assessed as cell survival after 72 hrs by CellTiter-96 aqueous one solution assay; format: cell-based, N2a; conditions: read-out: LC50
[4] = Cytotoxicity against human 786-O cells assessed as cell survival after 72 hrs by CellTiter-96 aqueous one solution assay; format: cell-based, 786-0; conditions: read-out: LC50
[5] = biological target: T1, Enoyl-[acyl-carrier-protein] reductase [NADH]; remark: listed apart in the source
[6] = biological target: T1, Enoyl-[acyl-carrier-protein] reductase [NADH]; remark: listed apart in the source
[7] = Solubility of the compound in DMSO at 125 uM; format: physicochemical

N#Cc1ccc(Oc2ccccc2O)c(F)c1
pIC50 [1]: 4.96

O=C(CC1CCCCC1)N1CCC(c2nc(-c3ccc(S(=O)(=O)N4CCCC4)cc3)no2)CC1
MIC (Staphylococcus aureus): > 52 µg/mL | MIC (Pseudomonas aeruginosa): > 52 µg/mL | MIC (Escherichia coli): > 52 µg/mL | MIC (Bacillus anthracis): > 26 µg/mL | MIC [2]: > 52 µg/mL | CC50 at 72 h [3]: 8 µM | CC50 at 72 h [4]: 7 µM | pKi [5]: 5.15 | pIC50 [6]: 5.10

O=C(C(=O)N1CC=C(c2ccccc2)CC1)c1c[nH]c2ccccc12
MIC (Staphylococcus aureus): > 413 µg/mL | MIC (Pseudomonas aeruginosa): > 413 µg/mL | MIC (Escherichia coli): > 413 µg/mL | MIC (Bacillus anthracis): > 208 µg/mL | MIC [2]: 39 µM | CC50 at 72 h [3]: 70 µM | CC50 at 72 h [4]: 63 µM | pIC50 [1]: 4.92 | pIC50 [6]: 5.52

Nc1ccn([C@@H]2O[C@H](CO)[C@@H](O)[C@@H]2O)c(=O)n1 [CYTARABINE]
pIC50 [1]: 4.23

CN(Cc1ccccc1N)C(=O)c1cc2ccccc2o1
pIC50 [1]: 4.35

CCc1ccc(CCOc2ccc(CC3SC(=O)NC3=O)cc2)nc1 (stereo not drawn) [PIOGLITAZONE]
pIC50 [1]: 4.10

NC(=O)c1ccc(Oc2ccccc2O)c(F)c1
pIC50 [1]: 5.22

O=C(O)c1cn(C2CC2)c2cc(N3CCNCC3)c(F)cc2c1=O [CIPROFLOXACIN]
MIC (Staphylococcus aureus): 2 µg/mL (≈ 6.04 µM) | MIC (Pseudomonas aeruginosa): 1 µg/mL (≈ 3.02 µM) | MIC (Escherichia coli): 0.0312 µg/mL (≈ 0.0943 µM) | MIC (Bacillus anthracis): 0.0312 µg/mL (≈ 0.0943 µM) | MIC [2]: 0.125 µg/mL

O=C(COc1ccccc1)NCCSc1c[nH]c2ccccc12
solubility [7]: soluble | MIC (Staphylococcus aureus): 86 µg/mL (≈ 263 µM) | MIC (Pseudomonas aeruginosa): > 343 µg/mL | MIC (Escherichia coli): > 343 µg/mL | MIC (Bacillus anthracis): 43 µg/mL (≈ 132 µM) | MIC [2]: 67 µM | CC50 at 72 h [3]: 30 µM | CC50 at 72 h [4]: 30 µM | pKi [5]: 5.47 | pIC50 [6]: 4.70

Oc1cc(Cl)ccc1Oc1ccc(Cl)cc1Cl [TRICLOSAN]
CC50 at 72 h [3]: 5.4 µM | CC50 at 72 h [4]: 4.2 µM | pIC50 [6]: 5.89

O=c1oc2ccccc2c(O)c1Cc1c(O)c2ccccc2oc1=O [DICUMAROL]
pIC50 [1]: 4.33

CN(Cc1ccc(C(C)(C)C)cc1)Cc1cccc2ccccc12 [BUTENAFINE]
pIC50 [1]: 4.12

From ChEMBL document CHEMBL2396561 (J Med Chem, 2013)
